The results in this text go back to US12479784B2, “Trisphenol derivative” (HONSHU CHEMICAL INDUSTRY CO., LTD., priority 2020, dated 2025).

Data set [1] in a line: Evaluation Test 1: Solubility at 30° C. in ethyl lactate. Type of data set: physicochemical. As to conditions: for Solubility (g/100 g, 30° C.): in ethyl lactate, stirred 3 hours, HPLC quantification. As to the method: (4) Conditions of solubility measurement and analysis of comparative compounds (x) and (y)
<Evaluation Test 1: Solubility at 30° C.>
For compound (C1) and compound (C2) obtained in Examples and the following two compounds having six functional groups likewise and reported as crosslinking agents, the solubility at 30° C. in ethyl lactate widely used as a resist solvent was measured. The following compounds are referred to as “comparative compound (x)” and “comparative compound (y)”.
A cross-shaped stirrer and 10 g of ethyl lactate were added to a 100 ml test tube, and after 10 g of comparative compound (x) (or (y)) was added, a siphon was attached. Under nitrogen purge, the test tube was set in a pre-conditioned water bath at 30° C. and stirred with the stirrer for 3 hours. After the stirring for 3 hours, the internal solution was sampled with a pipette, and solids were filtered off from the sampled solution through a syringe filter to put a filtrate in a 50 ml measuring flask. This was diluted to the 50 ml mark with methanol for HPLC and analyzed with a high-performance liquid chromatography analyzer. From the results obtained, comparative compound (x) (or (y)) in the filtrate was quantified using the peak area of comparative compound (x) (or (y)), and the solubility (=quantitative value (mg) of comparative compound (x) or (y)/(weight (mg) of filtrate put in 50 ml measuring flask through syringe filter-quantitative value (mg) of comparative compound (x) or (y)) was calculated.
Method of constructing calibration curve: comparative compound (x) (or (y)) used in the test was analyzed by HPLC, and an approximate straight line obtained by plotting the peak area of comparative compound (x) (or (y) on the horizontal axis and the concentration (mg/50 ml) of comparative compound (x) (or (y)) on the vertical axis with “intercept=0” was used as a calibration curve of comparative compound (x) (or (y)).

The nature of data set [2]: Evaluation Test 2: Low-temperature storage stability (dissolution stability) of ethyl lactate solutions. Type of data set: physicochemical. The arrangement: key to Solution storage test 5° C. / Solution storage test −5° C.: ∘: Completely dissolved, and neither precipitation of crystals nor separation of oily components can be visually observed.; x: Precipitation of crystals or separation of oily components can be visually observed. As to conditions: for Solution storage test −5° C. / Solution storage test 5° C.: ethyl lactate solution; for Solution storage test −5° C.: freezer −5° C.; for Solution storage test −5° C. / Solution storage test 5° C. / Crystallization on storage, in words: 30 days; for Solution storage test 5° C.: refrigerator 5° C.; for Crystallization on storage, in words: ethyl lactate solutions, both at 5° C. and −5° C. The protocol:
<Evaluation Test 2: Low-Temperature Storage Stability (Dissolution Stability)>
In a 50 ml screw tube, 4.29 g of compound (C1), the inventive compound, and 5.71 g of ethyl lactate were placed and mixed, and the screw tube was put in a water bath set at 30° C. and stirred by shaking it by hand. Complete dissolution was visually observed, thus preparing an ethyl lactate solution with a compound (C1) concentration of 42.9 wt %.
In the same manner as for compound (C1), an ethyl lactate solution with a compound (C2) concentration of 40 wt %, an ethyl lactate solution with a compound (C2) concentration of 50 wt %, and an ethyl lactate solution with a compound (y) concentration of 40 wt % were prepared.
These solutions were subjected to solution storage tests in a refrigerator (5° C.) and a freezer (−5° C.) for 30 days.
∘: Completely dissolved, and neither precipitation of crystals nor separation of oily components can be visually observed.
x: Precipitation of crystals or separation of oily components can be visually observed.

In the case of `COCc1cc(C(C)(C)c2ccc(C(C)(c3cc(COC)c(O)c(COC)c3)c3cc(COC)c(O)c(COC)c3)cc2)cc(COC)c1O` [Comparative compound (x), reference compound], the “Solubility (g/100 g, 30° C.)” value in data set [1] stood at 38.7 g/100 g.

For the compound `COCc1cc(CCC(C)(c2cc(COC)c(O)c(C3CCCCC3)c2)c2cc(COC)c(O)c(C3CCCCC3)c2)cc(COC)c1O` [Compound (C2)], in data set [1] (ethyl lactate), the “Solubility in ethyl lactate relative to comparative compound (x)” value is on record as “more than twice higher” and the “Solubility in ethyl lactate relative to comparative compound (y)” value is on record as “more soluble”. In data set [1], the Solubility (g/100 g, 30° C.) is greater than 100 g/100 g. Further, the “Solubility (g/100 g, 30° C.)” value in data set [1] (listed as compound (C2)) is “more than 100.0 g/100 g”. Also, in data set [2] (concentration 40.0 wt %), the “Solution storage test −5° C.” value is recorded as “∘” and the “Solution storage test 5° C.” value is given as “∘”. Further, in data set [2] (concentration 50.0 wt %), the “Solution storage test −5° C.” value was “∘” and the “Solution storage test 5° C.” value is given as “∘”. Besides, the “Crystallization on storage, in words” value in data set [2] is recorded as “did not crystallize at all”.

Consider `COCc1cc(C(C)(c2cc(COC)c(O)c(COC)c2)c2cc(COC)c(O)c(COC)c2)cc(COC)c1O` [(y), reference compound], for which, in data set [1], the “Solubility (g/100 g, 30° C.)” value was found to be 84.0 g/100 g. Besides, in data set [2] (concentration 40.0 wt %), the “Solution storage test −5° C.” value is given as “x” and the “Solution storage test 5° C.” value was “x”. In addition, the “Crystallization on storage, in words” value in data set [2] is reported as “experienced crystal precipitation”. Also, in data set [2] (test sample with precipitated crystals left at room temperature (22° C.) for one day), the “Re-dissolution of precipitated crystals” value is given as “did not dissolve again”.
